From US20250041312A1, “METHODS OF ADMINISTERING A MODULATOR OF HEMOGLOBIN” (Global Blood Therapeutics, Inc., priority 2021, published 2025)
Read-outs that look alike come from different tables or passages of the source.

Experiment: SAD study in healthy volunteers: PK in plasma, whole blood, red blood cells
Assay type: in vivo, human
Details: human; for half-life: read-out: t1/2 (converted); for Tmax: median
Experimental: To evaluate the safety and tolerability of single ascending doses of Compound I, 48 healthy volunteers (42 in the fasted state and 6 in the fed state) aged 18 to 55 years old were administered single ascending doses (50 mg to 2200 mg) of Compound I, while 16 healthy volunteers (14 in the fasted state and 2 in the fed state) aged 18 to 55 years old were administered placebo in a double blind, randomized, sequential manner.
Whole blood pharmacokinetic (PK) parameters, using actual sample collection times, and hemoglobin occupancy after single ascending dose are shown in Table 5 (containing data from both healthy volunteers and SCD subjects) and Table 6 (containing data from only healthy volunteer subjects).

Work on `O=Cc1c(O)cccc1OC[C@@H]1COCCN1C(=O)c1cccnc1CCO` [Compound I, (S)-2-hydroxy-6-((4-(2-(2-hydroxyethyl)nicotinoyl)morpholin-3-yl)methoxy)benzaldehyde] yielded a Cmax (whole blood, 2200 mg, HV single 2200 mg, mean) of 390 µg/mL, an AUC(0-t) (whole blood, 2200 mg, HV single 2200 mg, whole blood, mean, blood collected up to day 7, read-out: AUC0-t) of 48000 µg·h/mL and a Cmax (whole blood, po, 50 mg, HV single oral 50 mg (Cohort 1), geometric mean) of 8 µg/mL. It also gave an AUC(0-t) (whole blood, po, 50 mg, HV single oral 50 mg (Cohort 1), whole blood, geometric mean, read-out: AUClast) of 6810 µg·h/mL, a half-life (whole blood, po, 50 mg, HV single oral 50 mg (Cohort 1), whole blood, geometric mean) of 683 h and a Cmax (whole blood, po, 100 mg, HV single oral 100 mg (Cohort 2), geometric mean) of 17.3 µg/mL. The AUC(0-t) (whole blood, po, 100 mg, HV single oral 100 mg (Cohort 2), whole blood, geometric mean, read-out: AUClast) was 14300 µg·h/mL, the half-life (whole blood, po, 100 mg, HV single oral 100 mg (Cohort 2), whole blood, geometric mean) was 698 h and the Cmax (whole blood, po, 200 mg, HV single oral 200 mg (Cohort 3), geometric mean) was 34.2 µg/mL. The AUC(0-t) (whole blood, po, 200 mg, HV single oral 200 mg (Cohort 3), whole blood, geometric mean, read-out: AUClast) was 28600 µg·h/mL, the half-life (whole blood, po, 200 mg, HV single oral 200 mg (Cohort 3), whole blood, geometric mean) was 677 h and the Cmax (whole blood, po, 400 mg, HV single oral 400 mg (Cohort 5), geometric mean) was 87.6 µg/mL. It also gave an AUC(0-t) (whole blood, po, 400 mg, HV single oral 400 mg (Cohort 5), whole blood, geometric mean, read-out: AUClast) of 62200 µg·h/mL, a half-life (whole blood, po, 400 mg, HV single oral 400 mg (Cohort 5), whole blood, geometric mean) of 609 h and a Cmax (whole blood, po, 800 mg, HV single oral 800 mg (Cohort 6), geometric mean) of 149 µg/mL. The AUC(0-t) (whole blood, po, 800 mg, HV single oral 800 mg (Cohort 6), whole blood, geometric mean, read-out: AUClast) was 103000 µg·h/mL, the half-life (whole blood, po, 800 mg, HV single oral 800 mg (Cohort 6), whole blood, geometric mean) was 625 h and the Cmax (whole blood, po, 1400 mg, HV single oral 1400 mg (Cohort 7), geometric mean) was 230 µg/mL. For the same compound, the AUC(0-t) (whole blood, po, 1400 mg, HV single oral 1400 mg (Cohort 7), whole blood, geometric mean, read-out: AUClast) was 192000 µg·h/mL, the half-life (whole blood, po, 1400 mg, HV single oral 1400 mg (Cohort 7), whole blood, geometric mean) was 656 h and the Cmax (whole blood, po, 2200 mg, HV single oral 2200 mg (Cohort 8), geometric mean) was 387 µg/mL. It also gave an AUC(0-t) (whole blood, po, 2200 mg, HV single oral 2200 mg (Cohort 8), whole blood, geometric mean, read-out: AUClast) of 264000 µg·h/mL, a half-life (whole blood, po, 2200 mg, HV single oral 2200 mg (Cohort 8), whole blood, geometric mean) of 590 h and a Tmax (HV single 50 mg, whole blood) of 24 h. The Tmax (HV single 100 mg, whole blood) was 24 h, the Tmax (HV single 200 mg, whole blood) was 8 h and the Tmax (HV single 400 mg, whole blood) was 8 h. It also gave a Tmax (HV single 800 mg, whole blood) of 16 h, a Tmax (HV single 1400 mg, whole blood) of 12 h and a Tmax (HV single 2200 mg, whole blood) of 24 h. The AUC(0-inf) (HV single oral 50 mg (Cohort 1), plasma, geometric mean) was 34.2 µg·h/mL, the Tmax (HV single oral 50 mg (Cohort 1), plasma) was 0.75 h and the AUC(0-inf) (HV single oral 50 mg (Cohort 1), red blood cells (calculated conc.), geometric mean) was 18100 µg·h/mL. For the same compound, the Tmax (HV single oral 50 mg (Cohort 1), red blood cells (conc. calculated from blood, plasma, hematocrit)) was 24 h, the AUC(0-inf) (HV single oral 50 mg (Cohort 1), whole blood, geometric mean) was 7490 µg·h/mL and the Tmax (HV single oral 50 mg (Cohort 1), whole blood) was 24 h. The AUC(0-inf) (HV single oral 100 mg (Cohort 2), plasma, geometric mean) was 74.5 µg·h/mL, the Tmax (HV single oral 100 mg (Cohort 2), plasma) was 1 h and the AUC(0-inf) (HV single oral 100 mg (Cohort 2), red blood cells (calculated conc.), geometric mean) was 38500 µg·h/mL. It also gave a Tmax (HV single oral 100 mg (Cohort 2), red blood cells (calculated conc.)) of 24 h, an AUC(0-inf) (HV single oral 100 mg (Cohort 2), whole blood, geometric mean) of 15900 µg·h/mL and a Tmax (HV single oral 100 mg (Cohort 2), whole blood) of 24 h. It also gave an AUC(0-inf) (HV single oral 200 mg (Cohort 3), plasma, geometric mean) of 152 µg·h/mL, a Tmax (HV single oral 200 mg (Cohort 3), plasma) of 1 h and an AUC(0-inf) (HV single oral 200 mg (Cohort 3), red blood cells (calculated conc.), geometric mean) of 71200 µg·h/mL. The Tmax (HV single oral 200 mg (Cohort 3), red blood cells (calculated conc.)) was 8 h, the AUC(0-inf) (HV single oral 200 mg (Cohort 3), whole blood, geometric mean) was 31600 µg·h/mL and the Tmax (HV single oral 200 mg (Cohort 3), whole blood) was 8 h. For the same compound, the AUC(0-inf) (HV single oral 400 mg (Cohort 5), plasma, geometric mean) was 361 µg·h/mL, the Tmax (HV single oral 400 mg (Cohort 5), plasma) was 1 h and the AUC(0-inf) (HV single oral 400 mg (Cohort 5), red blood cells (calculated conc.), geometric mean) was 163000 µg·h/mL. For the same compound, the Tmax (HV single oral 400 mg (Cohort 5), red blood cells (calculated conc.)) was 10 h, the AUC(0-inf) (HV single oral 400 mg (Cohort 5), whole blood, geometric mean) was 67200 µg·h/mL and the Tmax (HV single oral 400 mg (Cohort 5), whole blood) was 8 h. For the same compound, the AUC(0-inf) (HV single oral 800 mg (Cohort 6), plasma, geometric mean) was 623 µg·h/mL, the Tmax (HV single oral 800 mg (Cohort 6), plasma) was 2.5 h and the AUC(0-inf) (HV single oral 800 mg (Cohort 6), red blood cells (calculated conc.), geometric mean) was 266000 µg·h/mL. The Tmax (HV single oral 800 mg (Cohort 6), red blood cells (calculated conc.)) was 36 h, the AUC(0-inf) (HV single oral 800 mg (Cohort 6), whole blood, geometric mean) was 111000 µg·h/mL and the Tmax (HV single oral 800 mg (Cohort 6), whole blood) was 16 h. For the same compound, the AUC(0-inf) (HV single oral 1400 mg (Cohort 7), plasma, geometric mean) was 1080 µg·h/mL, the Tmax (HV single oral 1400 mg (Cohort 7), plasma) was 2.5 h and the AUC(0-inf) (HV single oral 1400 mg (Cohort 7), red blood cells (calculated conc.), geometric mean) was 499000 µg·h/mL. The Tmax (HV single oral 1400 mg (Cohort 7), red blood cells (calculated conc.)) was 30 h, the AUC(0-inf) (HV single oral 1400 mg (Cohort 7), whole blood, geometric mean) was 210000 µg·h/mL and the Tmax (HV single oral 1400 mg (Cohort 7), whole blood) was 12 h. The AUC(0-inf) (HV single oral 2200 mg (Cohort 8), plasma, geometric mean) was 1430 µg·h/mL, the Tmax (HV single oral 2200 mg (Cohort 8), plasma) was 3.5 h and the AUC(0-inf) (HV single oral 2200 mg (Cohort 8), red blood cells (calculated conc.), geometric mean) was 670000 µg·h/mL. For the same compound, the Tmax (HV single oral 2200 mg (Cohort 8), red blood cells (calculated conc.)) was 24 h, the AUC(0-inf) (HV single oral 2200 mg (Cohort 8), whole blood, geometric mean) was 282000 µg·h/mL and the Tmax (HV single oral 2200 mg (Cohort 8), whole blood) was 24 h. The Tmax (healthy volunteers n=6, single 100 mg, plasma) was 1 h.
